“Also recorded” adds a separate entry of the source. Bridge positions count the residues as written; N and C are the ends. Ends that are not written are not given here.
Experiments:
[1] = relative weight change by rats injected daily; assay type: in vivo, rat; conditions: for relative weight change: same dose; for effectiveness in weight control: FIGS. 5 and 6
From the text: FIG. 5 is a graph illustrating relative weight change by rats injected daily with the same dose of either a placebo, UGP269 (SEQ ID NO: 12) or UGP 271 (SEQ ID NO: 13), at 7 and 14 days after commencement of the injection regimen. […] UGP 271 contained nearly the same sequence of amino acids as UGP269 except for the replacement of three amino acids at positions 26, 27 and 29.
FIG. 6 is a graph illustrating relative weight change by rats injected daily with the same dose of either a placebo, salmon calcitonin, UGP 271 (SEQ ID NO: 13) or UGP 281 (SEQ ID NO: 14) at 7 and 14 days after commencement of the injection regimen. FIG. 1 is a graph illustrating data from a bioassay comparing cAMP response for a peptide of the invention, SEQ ID NO:3, versus recombinant salmon calcitonin. […] UGP281 and UGP271 had identical amino acid sequences except that UGP281 was acylated at the N-terminus with acetate.

[2] = placebo controlled crossover study with Beagle dogs, oral enteric-coated capsules (food intake, weight); assay type: in vivo, Beagle dog; conditions: for effect on food intake / change in weight during the dosing period: oral capsules; for effect on food intake: equivalent doses, week of dosing, FIG. 2; for change in weight during the dosing period: same dose, FIG. 3
From the text: (§1) FIG. 2 is a graph illustrating the effect on food consumption provided by SEQ ID NO: 3 versus a placebo and two known appetite suppressants in a Beagle dog study. Average daily change in food consumption is shown following administration of oral capsules containing various doses of sCT, PYY or SEQ ID NO: 3 given to beagle dogs for four to seven days.
as §1, with “3” for “2”, “weight” for “food consumption”, “PYY,” for “PYY”
The effect of peptide SEQ ID NO: 3 on food intake was investigated in a placebo controlled crossover study with Beagle dogs. Peptide SEQ ID NO: 3, as well as salmon calcitonin (sCT) and PYY(3-36)NH2 were formulated in enteric-coated capsules for oral delivery. The capsules also contained excipients that inhibit proteases and enhance the absorption of peptides. Placebo capsules contained the same excipients without the peptide. Food and water intake, as well as the weight of the dogs was monitored daily before, during, and after the dosing period. Dogs were allowed access to a known amount of food for an 8 hour period every day, and water was provided ad libitum. […] The food intake of dogs given a placebo remained unchanged.

[3] = target: T1, calcitonin receptor (Homo sapiens, UniProt P30988); assay: cAMP response bioassay with T47D cells; assay type: cell-based; conditions: FIG. 1, versus recombinant salmon calcitonin
T1 construct: endogenous in cells; host or cells: T47D cells
T1 sequence (P30988 25-474): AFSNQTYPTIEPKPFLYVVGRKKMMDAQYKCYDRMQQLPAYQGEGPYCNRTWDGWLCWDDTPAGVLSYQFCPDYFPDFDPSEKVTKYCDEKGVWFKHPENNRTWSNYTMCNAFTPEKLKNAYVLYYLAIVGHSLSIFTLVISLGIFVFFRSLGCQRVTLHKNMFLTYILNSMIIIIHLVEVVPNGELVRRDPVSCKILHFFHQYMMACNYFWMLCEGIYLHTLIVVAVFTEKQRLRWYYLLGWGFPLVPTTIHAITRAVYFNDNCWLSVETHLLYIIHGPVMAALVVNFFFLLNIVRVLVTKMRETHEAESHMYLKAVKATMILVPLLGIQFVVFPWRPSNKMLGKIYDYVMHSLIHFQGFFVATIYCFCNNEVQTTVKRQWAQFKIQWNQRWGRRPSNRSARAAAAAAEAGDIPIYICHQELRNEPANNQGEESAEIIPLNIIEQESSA
Experimental: FIG. 1 is a graph illustrating data from a bioassay comparing cAMP response for a peptide of the invention, SEQ ID NO: 3, versus recombinant salmon calcitonin. Two replicate bioassay experiments were performed measuring the cAMP response with T47D cells. Each experiment compared three samples of SEQ ID NO: 3 to a sample of rsCT.

[4] = target: T2, calcitonin receptors on T47D cells (Homo sapiens, UniProt P30988); assay: binding to calcitonin receptors on T47D cells
T2 construct: endogenous in cells; host or cells: T47D cells
T2 sequence (P30988 25-474): T1 sequence (P30988 25-474)
From the text: FIG. 4 is a graph illustrating calcitonin-like properties of three peptides of the invention in comparison to salmon calcitonin in an assay that measures binding to calcitonin receptors on T47D cells. The three peptides of the invention are UGP269 (SEQ ID NO: 12), UGP 271 (SEQ ID NO: 13) and UGP281 (SEQ ID NO: 14).

[5] = rats injected intramuscularly daily, two weeks, FIG. 6
[6] = rats injected daily, 7 and 14 days, FIG. 5, versus placebo

Row | Compound | relative weight change [1, 5] | effect on food intake [2] | change in weight during the dosing period [2] | cAMP response (indicator of calcitonin receptor activation) compared with salmon calcitonin [3] | potency in reducing food consumption relative to sCT ([2]; FIGS. 1-3) | binding to calcitonin receptors compared with sCT ([4]; FIG. 4) | relative weight change [1, 6] | effectiveness in weight control ([1]; rats) | binding to calcitonin receptors compared with sCT ([4]; FIG. 4, listed as UGP 271) | enhancement of efficacy by the acetyl group on cysteine-1 ([1]; rats, FIG. 6, UGP281 versus UGP271)
1 | CC(C)C[C@H](NC(=O)[C@H](CCCCN)NC(=O)CNC(=O)[C@H](CC(C)C)NC(=O)[C@@H](NC(=O)[C@@H]1CSSC[C@H](N)C(=O)N[C@@H](CO)C(=O)N[C@@H](CC(N)=O)C(=O)N[C@@H](CC(C)C)C(=O)N[C@@H](CO)C(=O)N[C@@H]([C@@H](C)O)C(=O)N1)C(C)C)C(=O)N[C@@H](CO)C(=O)N[C@@H](CCC(N)=O)C(=O)N[C@@H](CCC(=O)O)C(=O)N[C@@H](CC(C)C)C(=O)N[C@@H](Cc1c[nH]cn1)C(=O)N[C@@H](CCCCN)C(=O)N[C@@H](CC(C)C)C(=O)N[C@@H](CCC(N)=O)C(=O)N[C@H](C(=O)N[C@@H](Cc1ccc(O)cc1)C(=O)N1CCC[C@H]1C(=O)N[C@@H](CCCNC(=N)N)C(=O)N[C@H](C(=O)N[C@@H](CC(N)=O)C(=O)N[C@H](C(=O)NCC(=O)N[C@@H](CO)C(=O)NCC(=O)N[C@H](C(=O)N1CCC[C@H]1C(N)=O)[C@@H](C)O)[C@@H](C)O)[C@@H](C)O)[C@@H](C)O [sCT, salmon calcitonin] | significant weight loss | significantly decreased food intake | small but significant reduction in weight |  |  |  |  |  |  | 
2 | PYY(3-36)NH2 |  | lesser effect | 0.05 % per day |  |  |  |  |  |  | 
3 | SEQ ID NO: 3: salmon calcitonin sequence except asparagine at position 30 and tyrosine at position 32, amidated at tyrosine-32 (CSNLSTCVLGKLSQELHKLQTYPRTNTGSNTY-NH2; ends and bridges not checked) |  | significantly decreased food intake | small but significant reduction in weight | less potent when binding to the calcitonin receptor than is natural salmon calcitonin | comparable to that of the bone anti-resorptive peptide sCT |  |  |  |  | 
4 | UGP269: peptide of the invention, calcitonin analog (CSNLSTCVLGKLSQELHKLQTYPRTNTGSNTY-NH2; disulfide 1-7; N-terminus assumed; SMILES CC(C)C[C@H](NC(=O)[C@H](CCCCN)NC(=O)CNC(=O)[C@H](CC(C)C)NC(=O)[C@@H](NC(=O)[C@@H]1CSSC[C@H](N)C(=O)N[C@@H](CO)C(=O)N[C@@H](CC(N)=O)C(=O)N[C@@H](CC(C)C)C(=O)N[C@@H](CO)C(=O)N[C@@H]([C@@H](C)O)C(=O)N1)C(C)C)C(=O)N[C@@H](CO)C(=O)N[C@@H](CCC(N)=O)C(=O)N[C@@H](CCC(=O)O)C(=O)N[C@@H](CC(C)C)C(=O)N[C@@H](Cc1c[nH]cn1)C(=O)N[C@@H](CCCCN)C(=O)N[C@@H](CC(C)C)C(=O)N[C@@H](CCC(N)=O)C(=O)N[C@H](C(=O)N[C@@H](Cc1ccc(O)cc1)C(=O)N1CCC[C@H]1C(=O)N[C@@H](CCCNC(=N)N)C(=O)N[C@H](C(=O)N[C@@H](CC(N)=O)C(=O)N[C@H](C(=O)NCC(=O)N[C@@H](CO)C(=O)N[C@@H](CC(N)=O)C(=O)N[C@H](C(=O)N[C@@H](Cc1ccc(O)cc1)C(N)=O)[C@@H](C)O)[C@@H](C)O)[C@@H](C)O)[C@@H](C)O) |  |  |  |  |  | less binding to sCT receptors than sCT; also recorded: less binding affinity for the calcitonin receptor than does salmon calcitonin | less weight gain over two weeks than those injected with placebo | good effectiveness in weight control |  | 
5 | UGP271: nearly the same sequence as UGP269 except for the replacement of three amino acids at positions 26, 27 and 29 (CSNLSTCVLGKLSQELHKLQTYPRTDVGANTY-NH2; disulfide 1-7; N-terminus assumed; SMILES CC(C)C[C@H](NC(=O)[C@H](CCCCN)NC(=O)CNC(=O)[C@H](CC(C)C)NC(=O)[C@@H](NC(=O)[C@@H]1CSSC[C@H](N)C(=O)N[C@@H](CO)C(=O)N[C@@H](CC(N)=O)C(=O)N[C@@H](CC(C)C)C(=O)N[C@@H](CO)C(=O)N[C@@H]([C@@H](C)O)C(=O)N1)C(C)C)C(=O)N[C@@H](CO)C(=O)N[C@@H](CCC(N)=O)C(=O)N[C@@H](CCC(=O)O)C(=O)N[C@@H](CC(C)C)C(=O)N[C@@H](Cc1c[nH]cn1)C(=O)N[C@@H](CCCCN)C(=O)N[C@@H](CC(C)C)C(=O)N[C@@H](CCC(N)=O)C(=O)N[C@H](C(=O)N[C@@H](Cc1ccc(O)cc1)C(=O)N1CCC[C@H]1C(=O)N[C@@H](CCCNC(=N)N)C(=O)N[C@H](C(=O)N[C@@H](CC(=O)O)C(=O)N[C@H](C(=O)NCC(=O)N[C@@H](C)C(=O)N[C@@H](CC(N)=O)C(=O)N[C@H](C(=O)N[C@@H](Cc1ccc(O)cc1)C(N)=O)[C@@H](C)O)C(C)C)[C@@H](C)O)[C@@H](C)O) | modest weight loss |  |  |  |  | less binding to sCT receptors than sCT | no weight gain | good effectiveness in weight control | less binding affinity for the calcitonin receptor than does salmon calcitonin | 
6 | UGP281: amino acid sequence identical to UGP271 except acylated at the N-terminus with acetate (Ac-CSNLSTCVLGKLSQELHKLQTYPRTDVGANTY-NH2; disulfide 1-7; SMILES CC(=O)N[C@H]1CSSC[C@@H](C(=O)N[C@H](C(=O)N[C@@H](CC(C)C)C(=O)NCC(=O)N[C@@H](CCCCN)C(=O)N[C@@H](CC(C)C)C(=O)N[C@@H](CO)C(=O)N[C@@H](CCC(N)=O)C(=O)N[C@@H](CCC(=O)O)C(=O)N[C@@H](CC(C)C)C(=O)N[C@@H](Cc2c[nH]cn2)C(=O)N[C@@H](CCCCN)C(=O)N[C@@H](CC(C)C)C(=O)N[C@@H](CCC(N)=O)C(=O)N[C@H](C(=O)N[C@@H](Cc2ccc(O)cc2)C(=O)N2CCC[C@H]2C(=O)N[C@@H](CCCNC(=N)N)C(=O)N[C@H](C(=O)N[C@@H](CC(=O)O)C(=O)N[C@H](C(=O)NCC(=O)N[C@@H](C)C(=O)N[C@@H](CC(N)=O)C(=O)N[C@H](C(=O)N[C@@H](Cc2ccc(O)cc2)C(N)=O)[C@@H](C)O)C(C)C)[C@@H](C)O)[C@@H](C)O)C(C)C)NC(=O)[C@H]([C@@H](C)O)NC(=O)[C@H](CO)NC(=O)[C@H](CC(C)C)NC(=O)[C@H](CC(N)=O)NC(=O)[C@H](CO)NC1=O) | significant weight loss |  |  |  |  | less binding to sCT receptors than sCT; also recorded: less binding affinity for the calcitonin receptor than does salmon calcitonin |  | good effectiveness in weight control |  | substantial enhancement of efficacy

— US9833494B2, “Methods of treating medical conditions using peptides” (KeyBioscience AG, priority 2009, dated 2017)
